Tests used:
[1] = system: Candida spp., Cryptococcus spp., Aspergillus spp., Scedosporium spp., Fusarium spp., and some Mucorales fungi; assay: In vitro antifungal activity; type: cell-based; details: including azole- and echinocandin-resistant strains
[2] = system: clinical isolates of rare mold infections and rare yeast infections; assay: Antifungal activity against clinical isolates of rare mold and rare yeast infections; type: cell-based; details: broad range of clinical isolates of rare mold and rare yeast infections
Text: These rare mold and rare yeast species generally pose no threat to healthy subjects, but can lead to invasive mold infections in immunocompromised individuals.

[3] = target: fungal glycosylphosphatidylinositol (GPI)-anchored wall transfer protein 1 (GWT1) enzyme (Saccharomyces cerevisiae, UniProt P47026); assay: Inhibition of fungal GWT1 enzyme; type: biochemical
Chain of fungal glycosylphosphatidylinositol (GPI)-anchored wall transfer protein 1 (GWT1) enzyme (P47026 whole entry): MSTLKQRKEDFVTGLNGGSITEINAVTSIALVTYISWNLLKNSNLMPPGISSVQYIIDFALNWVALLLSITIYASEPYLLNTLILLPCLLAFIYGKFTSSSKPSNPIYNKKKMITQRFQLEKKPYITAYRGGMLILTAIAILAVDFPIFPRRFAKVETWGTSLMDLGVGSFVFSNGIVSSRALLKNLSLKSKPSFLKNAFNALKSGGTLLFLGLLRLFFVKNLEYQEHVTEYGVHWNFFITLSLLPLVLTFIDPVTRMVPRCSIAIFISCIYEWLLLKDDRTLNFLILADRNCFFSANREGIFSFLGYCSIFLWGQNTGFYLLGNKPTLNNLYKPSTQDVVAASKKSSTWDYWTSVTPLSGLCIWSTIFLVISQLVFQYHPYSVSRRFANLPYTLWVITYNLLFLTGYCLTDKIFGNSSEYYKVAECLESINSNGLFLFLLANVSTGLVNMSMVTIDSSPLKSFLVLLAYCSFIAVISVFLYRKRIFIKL
Text: (§1) Compound 1A inhibits the fungal glycosylphosphatidylinositol (GPI)-anchored wall transfer protein 1 (GWT1) enzyme, a highly conserved inositol acylase that catalyzes an early step in the GPI-anchored biosynthesis pathway. This inhibition has pleiotropic effects on the fungal cell due to inhibition of cell wall mannoprotein localization, which comprises cell wall integrity, biofilm formation, germ tube formation, and fungal growth.

[4] = target: T1, phosphatidylinositol glycan anchor biosynthesis class W (PIGW) protein (Homo sapiens, UniProt Q7Z7B1); assay: Inhibition of PIGW, closest mammalian ortholog of GWT1; type: biochemical; details: closest mammalian ortholog of fungal GWT1
T1 sequence (Q7Z7B1 1-504): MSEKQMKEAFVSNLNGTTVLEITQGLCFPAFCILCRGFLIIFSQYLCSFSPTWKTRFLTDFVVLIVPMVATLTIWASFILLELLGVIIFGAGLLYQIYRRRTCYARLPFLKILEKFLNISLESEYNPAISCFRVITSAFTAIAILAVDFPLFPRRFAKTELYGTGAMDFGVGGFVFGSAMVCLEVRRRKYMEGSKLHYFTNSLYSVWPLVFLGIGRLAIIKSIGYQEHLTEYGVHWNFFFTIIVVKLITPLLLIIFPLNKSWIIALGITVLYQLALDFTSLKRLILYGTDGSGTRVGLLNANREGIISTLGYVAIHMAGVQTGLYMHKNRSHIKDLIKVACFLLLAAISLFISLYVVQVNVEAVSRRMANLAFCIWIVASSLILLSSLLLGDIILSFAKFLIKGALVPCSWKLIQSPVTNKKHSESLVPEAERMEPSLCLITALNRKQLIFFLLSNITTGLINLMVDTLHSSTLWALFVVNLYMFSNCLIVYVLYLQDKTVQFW
Text: as §1

[5] = system: Aspergillus fumigatus, Scedosporium prolificans, and Fusarium solani; assay: 5-fluorouracil immunosuppressed mice with IMIs; type: in vivo
[6] = system: Candida spp.; assay: Open-label study in non-neutropenic patients with candidemia; type: in vivo, human
Description: Suspicion of antifungal-resistant candidemia is sufficient and subsequent documented resistance is not required for enrollment. The Study Drug Treatment Period will be up to a maximum of 14 days (inclusive of the loading dose [Study Day 1]). […] There will be a Follow-up Period of 4 weeks (+4 days) after EOT. The total duration of participation in the study is up to approximately 7.5 weeks (inclusive of the Screening Period [≤96 hours prior to Baseline]).
Patients with a yeast identified in a blood culture or a positive rapid diagnostic method are eligible to be consented and screened for the study. Patients must have at least 1 positive blood test for Candida spp. (or yeast suspected to be Candida) for a diagnosis of candidemia to be considered for enrollment into the study. Patients with a positive blood culture showing yeast suspected to be Candida must have identification of Candida spp. from positive blood culture confirmed prior to dosing. Screening and Baseline procedures and the start of Compound 1 study drug will be initiated within 96 hours from the time that the SOC blood sample for the Candida spp. positive culture or rapid diagnostic test was drawn. Patients with 2 days (>48 hours) equivalent of prior systemic antifungal treatment at approved doses to treat the current episode of candidemia within 96 hours before first dose will be excluded.
On Study Day 1 (or over the first 24 hours if started in the evening), a 1000 mg Compound 1 loading dose will be administered over 3 hours by IV infusion BID. On Study Days 2 and 3 of study drug, a 600 mg Compound 1 maintenance dose will be administered over 3 hours by IV infusion QD. On Study Day 4 and onward, the Compound 1 maintenance dose will be administered as either 600 mg Compound 1 IV infusion QD over 3 hours or 700 mg PO QD. […] Study drug will be administered for a maximum of 14 days. […] Candida spp. bloodstream infection will be monitored by daily blood culture during Study Drug Treatment until 2 consecutive blood cultures are negative, and at EOST, EOT, and 2 and 4 weeks after EOT, or Early Termination. Simultaneously drawn blood samples will be collected for Candida testing by T2 magnetic resonance (T2MR) assay at Baseline, during Study Drug Treatment, and EOST, or Early Termination. Other cultures, histopathology, and imaging tests to assess the site(s) and extent of candidemia infection at other sites will be conducted as clinically indicated, and the results should be recorded in the electronic Case Report Form (eCRF). The management of intravascular catheters, intravascular devices, and, if applicable, any drains will be recorded, including any associated microbiology results. Patients will be monitored for safety throughout the duration of the study.
On Study Day 1 (or over the first 24 hours if started in the evening), a 1000 mg Compound 1 loading dose will be administered over 3 hours by IV infusion BID. On Study Days 2 and 3 of study drug, a 600 mg Compound 1 maintenance dose will be administered over 3 hours by IV infusion QD. On Study Day 4 and onward, the Compound 1 maintenance dose will be administered as either 600 mg Compound 1 IV infusion QD over 3 hours or 700 mg PO QD. […] Study drug will be administered for a maximum of 14 days (inclusive of the loading dose [Study Day 1]). Tablets are to be administered at the same time each day, whole, and taken by mouth with water within 30 minutes of being removed from the refrigerator. No splitting or crushing of tablets is allowed.
If applicable, an assessment of efficacy will also be made at the end of this antifungal treatment at EOT.
Eradication is defined as a negative blood culture(s) for Candida spp. in the absence of additional antifungal therapy (except for protocol-allowed step-down treatment [e.g., fluconazole]) through EOT

[7] = in vivo
[8] = system: A. fumigatus, S. apiospermum, F. solani, and Rhizopus spp.; assay: Cyclophosphamide and cortisone acetate immunosuppressed mice with IMIs; type: in vivo
[9] = system: Candida spp.; assay: In vitro activity against Candida spp. isolates from the study; type: cell-based; details: including isolates resistant to other antifungal agents
Description: A total of 21 patients were enrolled in the study: 20 were included in the mITT. Median duration of Compound 1 therapy was 11 days (range 5 to 14). All patients received IV Compound 1, 48% (10/21) received PO Compound 1.

[10] = Phase 1 studies in healthy volunteers, safety and tolerability; type: in vivo, human
Text: In Phase 1 clinical studies of compound 1, the safety, tolerability, and PK of single and multiple ascending doses administered intravenously (IV) and orally (PO) have been studied. To date, a total of 197 healthy volunteers and 21 patients with acute myeloid leukemia (AML) have received compound 1 across 5 Phase 1 studies. The duration of the multiple-dose regimens in these studies was 7, 14, and 42 days (6 weeks).
The majority of the TEAEs were mild, transitory, and resolved without intervention. […] This IV dose regimen is identical to the IV dose regimen that will be used in this study. […] This PO-dose regimen is higher than the 700 mg PO dose that will be used in this study.

[11] = Tissue distribution; type: in vivo; details: IV and PO formulations
Text: Compound 1 has a novel mechanism of action with broad spectrum activity against Candida spp. (yeast) and Aspergillus spp. (mold), including activity against polyene and azole-resistant strains of Aspergillus spp. […] Compound 1 has the potential to be used as a first-line agent for the treatment of IMIs through a unique mechanism of action. Thus, compound 1 has potential to fill an unmet need for patients with limited or no antifungal treatment options due to documented/anticipated resistance, contraindication, intolerance, or lack of clinical response to standard of care (SOC) antifungal therapy.

[12] = patients with renal insufficiency
[13] = patients with renal insufficiency (n=14)

Compound: Nc1ncccc1-c1cc(Cc2ccc(COc3ccccn3)cc2)no1 [Compound 1A]
- in vitro antifungal activity [1]: broad in vitro antifungal activity
- antifungal activity against clinical isolates [2]: demonstrated antifungal activity
- inhibition of fungal GWT1 enzyme [3]: inhibits
- inhibition of PIGW protein [4]: does not inhibit
- pulmonary fungal colony counts [5]: reduced pulmonary fungal colony counts
- survival rates [5]: statistically significantly improved survival rates

Compound: Nc1c(-c2cc(Cc3ccc(COc4ccccn4)cc3)no2)ccc[n+]1COP(=O)([O-])O [Compound 1]
- DRC-assessed success rate at EOST ([6]; mITT (16/20)): 80%
- Survival at day 30 ([6]; mITT (17/20)): 85%
- tolerability ([6]; patients with candidemia, up to 14 days): well-tolerated with no treatment-related serious adverse events or discontinuations
- effect of renal impairment on exposure [6, 12]: did not increase exposure
- treatment-related adverse events [6, 12]: no treatment-related adverse events
- Treatment success rate at EOST ([6]; patients with renal insufficiency (12/14)): 86%
- worsening of renal function at EOST [6, 13]: None
- worsening of renal function during the follow-up period [6, 13]: 4 patients
- conversion of prodrug to compound 1A [7]: rapidly converted in vivo
- fungal burden [8]: reduced fungal burden
- survival rates [8]: statistically significantly improved survival rates
- in vitro activity against Candida spp. from the study [9]: potent in vitro activity
- DLTs ([10]; 2 Phase 1 studies, healthy volunteers): No DLTs were observed
- safety and tolerability ([10]; 2 Phase 1 studies, healthy volunteers, IV and PO formulations): safe and well tolerated
- safety and tolerability ([10]; FIH Phase 1: 1000 mg IV 2-hour infusion BID Day 1, then 600 mg IV 1-hour infusion QD Days 2 through 7): safe and well tolerated
- safety and tolerability ([10]; second Phase 1 study: 1000 mg PO QD Days 1 through 14): safe and well tolerated
- pulmonary fungal colony counts [5]: reduced pulmonary fungal colony counts
- survival rates [5]: statistically significantly improved survival rates
- tissue distribution [11]: wide-tissue distribution, including the eye and central nervous system

Reference: patent publication US20230233586A1, “COMPOUNDS AND METHODS FOR TREATING FUNGAL INFECTIONS” (Amplyx Pharmaceuticals, Inc., priority 2020, published 2023)
